Laboratory results: PubChem BioAssay (NCI)
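Compound exposure: 48 hours, 5 concentrations, 96-well plates. GI50 marks 50% less growth. Definition used: TGI = concentration required for complete inhibition of growth.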

Columns and labels:
Test in all cases: DTP human tumour cell line panel, 48 h
[1] = system: HS 578T breast
[2] = system: RXF 393 renal
[3] = system: UACC-257 melanoma
[4] = system: ACHN renal
[5] = system: OVCAR-3 ovarian
[6] = system: MOLT-4 leukemia
[7] = system: HOP-92 NSCLC
[8] = system: NCI-H226 lung
[9] = system: EKVX NSCLC
[10] = system: SF-295 CNS

Row | Compound | TGI [1] [µM] | TGI [2] [µM] | TGI [3] [µM] | TGI [4] [µM] | TGI [5] [µM] | TGI [6] [µM] | TGI [7] [µM] | TGI [8] [µM] | TGI [9] [µM] | TGI [10] [µM] | GI50 [1] [µM] | GI50 [8] [µM] | GI50 [2] [nM] | GI50 [3] [µM] | GI50 [4] [µM] | GI50 [5] [µM] | GI50 [9] [µM] | GI50 [7] [nM] | GI50 [10] [nM] | GI50 [6] [nM]
1 | N#Cc1c(-c2ccc(Cl)cc2)c2c(n(C3OC(CO)C(O)C(O)C3O)c1=S)CCC2 (stereo not drawn) | 84.3 | 63.2 | 87.2 | > 100 | 74.3 | 29 | 60.7 | – | – | – | – | – | – | – | – | – | – | – | – | –
2 | O=C(Cn1c(C(=O)/C=C/c2cccs2)nc2ccccc21)c1ccc(Cl)cc1 | 38.7 | > 100 | 58.1 | > 100 | 57.3 | – | 93 | > 100 | – | – | – | – | – | – | – | – | – | – | – | –
3 | CCOC(=O)c1cnc2oc3ccc(O)cc3c2c1-c1ccccc1 | > 100 | > 100 | > 100 | > 100 | > 100 | > 100 | > 100 | > 100 | > 100 | > 100 | – | – | – | – | – | – | – | – | – | –
4 | COc1cc(/C=C2\Sc3scc(-c4cccc([N+](=O)[O-])c4)[n+]3C2=O)cc(OC)c1OC | 57.1 | 26.9 | 25.2 | 28.1 | 44.8 | 11.8 | 73.9 | 34.3 | 26.5 | 39.5 | – | – | – | – | – | – | – | – | – | –
5 | CC(C)C(OC(=O)c1ccc(NCc2cc(O)ccc2O)cc1)C(C)C | 8.09 | 1.65 | 3.83 | 2.33 | 4.37 | 0.956 | 1.36 | 5.47 | 5.32 | 15.4 | – | – | – | – | – | – | – | – | – | –
6 | CC(=O)Oc1c2oc3ccc(Cl)cc3c(=O)c2c(O)c2ccsc12 | > 100 | > 100 | > 100 | > 100 | > 100 | – | > 100 | > 100 | > 100 | > 100 | – | – | – | – | – | – | – | – | – | –
7 | Nc1ccccc1CC(O)C(=O)O (stereo not drawn) | > 100 | > 100 | > 100 | > 100 | > 100 | > 100 | > 100 | > 100 | > 100 | > 100 | – | – | – | – | – | – | – | – | – | –
8 | O=C(OCCN=c1c2ccccc2ccc2ccccc12)c1ccc([N+](=O)[O-])cc1 | > 100 | > 100 | > 100 | > 100 | > 100 | > 100 | > 100 | > 100 | > 100 | > 100 | – | – | – | – | – | – | – | – | – | –
9 | CC1=NN(c2nc(N)nc(/C(C#N)=C/c3cccn3-c3cc(Cl)cc(Cl)c3)n2)C(C)(C)C1 | > 100 | > 100 | > 100 | > 100 | > 100 | – | > 100 | > 100 | > 100 | > 100 | – | – | – | – | – | – | – | – | – | –
10 | CCNC(=O)c1cc(/C=C/c2ccc([N+](=O)[O-])o2)nc2ccccc12 | > 100 | > 100 | 28.2 | > 100 | > 100 | > 95.4 | > 100 | > 100 | > 100 | > 100 | – | – | – | – | – | – | – | – | – | –
11 | O=C(Nc1ccccc1)N(CCCCN(Cc1ccccc1)C(=O)Nc1ccccc1)Cc1ccccc1 | > 100 | > 100 | > 100 | > 100 | > 100 | > 100 | > 100 | > 100 | > 100 | > 100 | – | – | – | – | – | – | – | – | – | –
12 | COc1ccc(-c2cc(-c3cc4cc(Br)ccc4nc3Cl)c(C#N)c(N)n2)cc1 | > 12.5 | > 12.5 | – | – | > 12.5 | > 12.5 | > 12.5 | > 12.5 | > 12.5 | > 12.5 | – | – | – | – | – | – | – | – | – | –
13 | CCN(CC)c1ccc2cc(C(=O)Nc3cccc4ccccc34)c(=N)oc2c1 | > 100 | > 100 | > 100 | > 100 | – | – | > 100 | > 100 | > 100 | > 100 | – | – | – | – | – | – | – | – | – | –
14 | CSC1=N/C(=C\c2ccco2)C(=O)N1CN1CCOCC1 | > 100 | 44.6 | > 100 | > 89.4 | > 100 | > 96.2 | – | > 100 | > 100 | > 100 | – | – | – | – | – | – | – | – | – | –
15 | CN(C)c1nc2oc(-c3ccccc3)c(-c3ccccc3)c2c2nnnn12 | > 100 | > 100 | > 100 | > 100 | – | > 100 | > 100 | > 100 | > 100 | > 100 | – | – | – | – | – | – | – | – | – | –
16 | c1ccc2c(c1)CCc1c-2n(CCN2CCOCC2)c2ccccc12 | > 100 | – | > 100 | > 100 | > 100 | > 100 | 38.1 | > 100 | > 100 | > 100 | – | – | – | – | – | – | – | – | – | –

Row | Compound | TGI [1] [µM] | TGI [2] [µM] | TGI [3] [µM] | TGI [4] [µM] | TGI [5] [µM] | TGI [6] [µM] | TGI [7] [µM] | TGI [8] [µM] | TGI [9] [µM] | TGI [10] [µM] | GI50 [1] [µM] | GI50 [8] [µM] | GI50 [2] [nM] | GI50 [3] [µM] | GI50 [4] [µM] | GI50 [5] [µM] | GI50 [9] [µM] | GI50 [7] [nM] | GI50 [10] [nM] | GI50 [6] [nM]
17 | Cc1cc(N2CCCC2)nc(N(CCNc2ccnc3cc(Cl)ccc23)Cc2ccco2)n1 | 69.3 | 6.74 | > 100 | > 100 | 42.3 | – | 13.2 | > 100 | > 100 | 16.1 | 6.6 | 3.2 | 2140 | 10.8 | 6.53 | 3.4 | 5.7 | 1880 | 2070 | –
18 | CC1(C)CC(=O)c2c(nc3ccc4ccccc4c3c2-c2ccc(NC(=O)CCCCCCCCC(=O)Nc3ccc(-c4c5c(nc6ccc7ccccc7c46)CC(C)(C)CC5=O)cc3)cc2)C1 | > 100 | – | > 100 | > 100 | > 100 | > 100 | > 100 | > 100 | > 100 | > 100 | – | – | – | – | – | – | – | – | – | –
19 | C/C=C(/C)C(=O)O[C@H](C[C@@H](C)[C@H]1CC(c2ccoc2)OC1=O)[C@@]1(C)C(=O)CCC2O[C@]21C (stereo partly drawn) | > 100 | > 100 | > 100 | > 100 | > 100 | > 100 | – | > 100 | > 100 | > 100 | – | – | – | – | – | – | – | – | – | –
20 | Cc1c2c(n(CCc3ccc(Cl)cc3)c1C)NC(c1ccccc1)C(C#N)S2(=O)=O (stereo not drawn) | > 79.5 | – | > 100 | > 100 | > 100 | 11.6 | > 100 | > 100 | > 100 | > 100 | – | – | – | – | – | – | – | – | – | –
21 | COc1cc(/C=C2/C[C@H]3[C@@H]4CC=C5C[C@@H](OC(C)=O)CC[C@]5(C)[C@H]4CC[C@]3(C)NC2=O)cc(OC)c1OC | 74.2 | 39.4 | 97.1 | 44.6 | > 100 | 91.4 | 52.3 | – | 68.3 | 65.9 | – | – | – | – | – | – | – | – | – | –
22 | C[C@H]1C[C@H]2[C@@H]3C(C)(C)O[C@]4(O)C(=O)[C@]5(O)[C@@H](C)CC[C@H]1[C@]25C(=O)[C@]34C | > 100 | – | > 100 | 72.6 | 68.1 | 80.7 | 62.7 | 98.2 | – | 77.5 | – | – | – | – | – | – | – | – | – | –
23 | O=C1c2cc3c(cc2CC12Cc1ccc4c(c1C2=O)CCCC4)CCCC3 (stereo not drawn) | > 100 | > 100 | > 100 | > 100 | > 100 | > 100 | 64.2 | – | > 100 | > 100 | – | – | – | – | – | – | – | – | – | –
24 | COc1ccccc1NC(=O)CC(=O)N1N=C(C)C(N=Nc2ccc(C(=O)O)cc2)C1=O (stereo not drawn) | > 100 | > 100 | > 100 | > 100 | > 100 | – | > 100 | – | > 100 | > 100 | – | – | – | – | – | – | – | – | – | –
25 | CC(=O)Nc1ccc(OC2=CCN(C)CC2)cc1 | > 100 | > 100 | > 100 | > 100 | > 100 | > 100 | – | > 100 | > 100 | > 100 | – | – | – | – | – | – | – | – | – | –
26 | COc1ccc(-n2c(=O)n(C)c(=O)n2-c2ccc(OC)cc2)cc1 | > 100 | – | > 100 | > 100 | > 100 | > 100 | > 100 | > 100 | > 100 | > 100 | – | – | – | – | – | – | – | – | – | –
27 | O=C(O)c1ccn(-c2cccc(-n3ccc(C(=O)O)n3)n2)n1 | > 100 | > 100 | > 100 | > 100 | > 100 | > 100 | – | > 100 | > 100 | > 100 | – | – | – | – | – | – | – | – | – | –
28 | CN1CCN(CCCBr)CC1 | > 100 | > 100 | > 100 | > 100 | > 100 | – | > 100 | > 100 | > 100 | > 100 | – | – | – | – | – | – | – | – | – | –
29 | CCCCCC(C)SC1(C(=O)OC)CC(OC(C)=O)C(NC(C)=O)C([C@H](OC(C)=O)[C@@H](COC(C)=O)OC(C)=O)O1 (stereo partly drawn) | 97 | > 100 | > 100 | > 100 | > 100 | > 100 | > 100 | > 100 | – | > 100 | – | – | – | – | – | – | – | – | – | –
30 | Oc1c([Si](c2ccccc2)(c2ccccc2)c2ccccc2)cc2ccccc2c1-c1c(O)c([Si](c2ccccc2)(c2ccccc2)c2ccccc2)cc2ccccc12 | > 100 | > 100 | > 100 | > 100 | – | > 100 | > 100 | – | > 100 | > 100 | – | – | – | – | – | – | – | – | – | –
31 | COc1ccc(C(=O)/C=C/c2c(Cl)c3c(c(OC)c2Cl)OCC(=O)N3)cc1 | 50.4 | 3.54 | > 100 | 3.64 | – | 9.75 | 8.88 | > 100 | – | 32.7 | 4.43 | 7.08 | 1790 | 2.98 | 1.79 | – | – | 2440 | 3230 | 2710
